Laboratory results taken from US8067197B2, “Soluble recombinant αvβ3 adhesion receptor” (Merck Patent GmbH, priority 1996, dated 2011).
One block for each compound: values may come before it. Square brackets hold non-standard residues; d marks the D form. βAla = NCCC(=O)O

What was measured:
[1] = target: αVβ3 receptor (placenta, full length recombinant, soluble recombinant); assay: Competition assay: inhibition of biotinylated vitronectin binding to immobilized integrin; parameters: species or system human; conditions: biotinylated vitronectin 1 μg/ml, 3 h, 37° C.
Protocol: The truncated and full length recombinant αVβ3 and placenta αVβ3 are immobilized and binding of biotinylated ligands is examined. Three purified RGD-containing ligands—vitronectin, fibrinogen and fibronectin—that are known to bind to αVβ3 are used. […] Biotinylated vitronectin and increasing concentrations of above-specified peptides or non-peptidic analogues are incubated in parallel with immobilized receptor.
Integrins were immobilized as described above. Serially diluted cyclic peptides were added in parallel with biotinylated vitronectin (1 μg/ml). After 3 h incubation at 37° C., bound ligand was detected as described above. […]

[2] = system: αVβ3 receptor (placenta, full length recombinant, soluble recombinant); assay: Ligand binding assay: biotinylated ligands on immobilized integrins; parameters: species or system human; conditions: full length and soluble recombinant αVβ3, compared with placental αVβ3; result in words
Protocol: The truncated and full length recombinant αVβ3 and placenta αVβ3 are immobilized and binding of biotinylated ligands is examined. Three purified RGD-containing ligands—vitronectin, fibrinogen and fibronectin—that are known to bind to αVβ3 are used. […] Vitronectin is used for testing specific interaction with the recombinant αVβ3. Biotinylated vitronectin and increasing concentrations of above-specified peptides or non-peptidic analogues are incubated in parallel with immobilized receptor.
Proteins in PBS were diluted with 5-fold concentrated ligation buffer [500 mM NaCl, 500 mM NaHCO3] to 1 mg/ml protein. Freshly prepared N-hydroxysuccinimidobiotin (Sigma) [1 mg/ml in DMSO] was added to 0.1 mg/ml and incubated for 2 h at 20° C. After dialysis [PBS, 0.025% NaN3], protein concentration was determined. The biotinylated proteins were stored at 4° C.
Ligand Binding assay Integrins were diluted to 1 μg/ml in coating buffer [150 mM NaCl, 1 mM CaCl2, 1 mM MgCl2, 10 μM MnCl2, 20 mM Tris-HCl; pH 7.4) and 100 μl were adsorbed overnight at 4° C. to 96-well microtitre plates. The plates were washed once with binding buffer [0.1% (w/v) BSA in coating buffer] and blocked with blocking buffer (coating buffer containing 3% (w/v) BSA) 2 h at 37° C. After rinsing with binding buffer, serially diluted biotinylated ligands were added. After incubation (3 h, 37° C.), unbound ligand was washed from the plate with binding buffer, and bound biotin was detected by incubation with antibiotin-alkaline-phosphatase conjugated antibody and detection of bound antibody with p-Nitrophenyl-phosphate (BIO-RAD) substrate.
Target sequence in this assay (P06756 31-987 limits assumed): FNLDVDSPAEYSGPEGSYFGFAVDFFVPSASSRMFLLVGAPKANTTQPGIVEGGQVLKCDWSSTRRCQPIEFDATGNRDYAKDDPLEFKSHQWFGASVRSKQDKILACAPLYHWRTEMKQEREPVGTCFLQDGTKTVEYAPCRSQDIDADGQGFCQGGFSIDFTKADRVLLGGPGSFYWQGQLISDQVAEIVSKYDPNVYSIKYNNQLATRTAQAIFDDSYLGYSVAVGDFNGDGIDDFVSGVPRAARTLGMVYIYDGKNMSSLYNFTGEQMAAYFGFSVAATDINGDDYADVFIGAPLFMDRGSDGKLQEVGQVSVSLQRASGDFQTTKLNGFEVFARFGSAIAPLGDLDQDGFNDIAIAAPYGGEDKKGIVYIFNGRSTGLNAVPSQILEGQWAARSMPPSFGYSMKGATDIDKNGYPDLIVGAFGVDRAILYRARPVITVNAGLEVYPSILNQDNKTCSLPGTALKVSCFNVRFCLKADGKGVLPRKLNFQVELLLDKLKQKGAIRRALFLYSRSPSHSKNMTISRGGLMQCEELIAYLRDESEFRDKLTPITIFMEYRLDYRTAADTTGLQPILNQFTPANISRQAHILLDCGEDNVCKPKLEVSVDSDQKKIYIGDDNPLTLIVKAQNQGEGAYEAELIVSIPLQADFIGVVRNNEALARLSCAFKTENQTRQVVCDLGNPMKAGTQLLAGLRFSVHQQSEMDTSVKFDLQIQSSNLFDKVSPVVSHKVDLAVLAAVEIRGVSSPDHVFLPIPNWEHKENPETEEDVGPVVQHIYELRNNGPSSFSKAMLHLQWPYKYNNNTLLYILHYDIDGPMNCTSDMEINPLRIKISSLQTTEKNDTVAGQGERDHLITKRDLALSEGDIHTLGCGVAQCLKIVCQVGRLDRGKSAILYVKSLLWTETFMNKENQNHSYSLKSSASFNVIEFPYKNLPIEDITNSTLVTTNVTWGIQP
Target sequence in this assay (P05106 27-718 limits assumed, further chain): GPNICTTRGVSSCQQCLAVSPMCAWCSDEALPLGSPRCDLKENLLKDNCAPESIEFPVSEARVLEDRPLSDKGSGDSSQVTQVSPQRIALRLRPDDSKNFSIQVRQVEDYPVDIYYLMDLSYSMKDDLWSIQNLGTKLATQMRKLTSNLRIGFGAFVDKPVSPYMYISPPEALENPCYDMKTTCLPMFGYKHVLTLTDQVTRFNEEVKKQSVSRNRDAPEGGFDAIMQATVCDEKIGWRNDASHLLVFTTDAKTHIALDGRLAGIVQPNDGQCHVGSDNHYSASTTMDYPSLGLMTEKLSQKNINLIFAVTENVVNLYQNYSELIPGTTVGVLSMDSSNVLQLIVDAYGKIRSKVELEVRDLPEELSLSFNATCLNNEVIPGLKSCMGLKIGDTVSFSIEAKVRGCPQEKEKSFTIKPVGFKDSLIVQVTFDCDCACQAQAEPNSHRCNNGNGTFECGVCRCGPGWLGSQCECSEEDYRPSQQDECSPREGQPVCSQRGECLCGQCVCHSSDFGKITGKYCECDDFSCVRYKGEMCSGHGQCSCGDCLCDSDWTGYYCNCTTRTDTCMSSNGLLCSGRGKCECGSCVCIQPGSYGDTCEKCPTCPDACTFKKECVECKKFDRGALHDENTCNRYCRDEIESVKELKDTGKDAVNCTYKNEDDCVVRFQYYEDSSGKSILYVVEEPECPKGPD

[3] = system: Sf9 cells expressing full length or truncated αV or β3; assay: Metabolic pulse labelling of proteins expressed in Sf9 cells; type: cell-based, insect; conditions: tunicamycin 10 μM or 10 μg/ml for 16 hours before and during pulse labelling; SDS-PAGE
Protocol: The cell extracts were resolved by SDS-PAGE under reducing conditions. The molecular mass in kDa of standard protein markers are indicated on the right. • (B) Sf9 cells infected with αV (FL) (lanes 1 and 2), αV(SL) (lane 3 and 4), β3 (FL) (lane 5 and 6) and β3(SL) (lane 7 and 8) were either treated with 10 μM Tunicamycin in DMSO (lanes 1, 3, 5 and 7) or with DMSO alone (lanes 2, 4, 6 and 8). The infected cells were metabolically pulse labelled as above. Standard protein markers are indicated on the right.
Similarly, Sf9 cells expressing full length β3 how two bands of approximately 90 kDa and 125 kDa (FIG. 2A, lane 4).
Metabolic labelling of Sf9 cells was performed as described (Summer and Smith 1987: A manual of methods for baculovirus vectors and insect cell procedures. Texas Agricultural Experiment Station Bulletin B-1555). Where indicated, tunicamycin (Sigma) was present at 10 μg/ml for 16 hours before and during pulse labelling. Cells were lysed with 100 μl of buffer [1% Nonidet® P-40, 1 mM CaCl2, 150 mM NaCl, 0.4 mM Pefabloc® (Boehringer Mann-heim), 10 μg/ml Leupeptin and E64 (Sigma), 10 mM Tris/HCl; pH 7.4; Nonidet P-40 is a detergent and Pefabloc is a protease inhibitor]. […]

[4] = system: αV and β3 virus infected Sf9 cells; assay: Cell shape change studies of virus-infected Sf9 cells on vitronectin coated plates; type: cell-based, insect; conditions: result in words
Excerpt: Integrins determine and modulate the cell shape by acting as structural links between the extracellular matrix and the cytoskeleton (Schwartz et al. 1995, Ann. Rev. Cell Dev. Biol. 11, 549; Montgomery et al. 1994, Proc. Natl. Acad. Sci. USA 91, 8856). In later phases of baculovirus infection, Sf9/High Five cells are usually rounded and loosely attached (FIG. 3A), as were the cells infected with either of the αV or β3 expressing recombinant baculovirus alone or with the null recombinant virus (FIG. 3A). […] No shape change is observed in cells co-infected with αV(FL)+β3(SL) or αV(SL)+β3(SL). […] Correspondingly, cell shape change of αV and β3 virus infected Sf9 cells on vitronectin coated plates are inhibited when challenged with RGD peptides (Table 1).
Sf9 cells (1×10^6 cells/well) were allowed to adhere to six-well plates either virgin or coated with purified human plasma vitronectin (5 μg/ml in PBS; 2 hours) followed by blocking of non-specific sites (3% BSA (w/v) in PBS), then infected with various virus combinations. The cells were observed 48 hours post-infection for cell shape change.

IC50 [1]: 1 to 5 nM
Compound: CC(C)[C@@H]1NC(=O)[C@@H](Cc2ccccc2)NC(=O)[C@H](CC(=O)O)NC(=O)CNC(=O)[C@H](CCCNC(=N)N)NC1=O [cyc(RGDfV)]

Compound: fibronectin
binding of biotinylated ligand to immobilized receptor [2]: bind both to the full length and soluble receptor preparations in a concentration dependent manner

Compound: fibrinogen
binding of biotinylated ligand to immobilized receptor [2]: bind both to the full length and soluble receptor preparations in a concentration dependent manner

Compound: tunicamycin
production of the slower migrating (glycosylated) band [3]: inhibits the production of the slower migrating band

Compound: cyc(RβADfV) (cyclo(R[βAla]D[dF]V); SMILES CC(C)[C@@H]1NC(=O)[C@@H](Cc2ccccc2)NC(=O)[C@H](CC(=O)O)NC(=O)CCNC(=O)[C@H](CCCNC(=N)N)NC1=O) [control peptide where β-alanine was substituted for glycine]
effect on cell shape change of αV and β3 virus infected Sf9 cells [4]: no effect

Compound: cyc(RGEfV) (cyclo(RGE[dF]V); SMILES CC(C)[C@@H]1NC(=O)[C@@H](Cc2ccccc2)NC(=O)[C@H](CCC(=O)O)NC(=O)CNC(=O)[C@H](CCCNC(=N)N)NC1=O) [control peptide where glutamate was substituted for aspartate]
effect on cell shape change of αV and β3 virus infected Sf9 cells [4]: no effect

Compound: vitronectin: purified RGD-containing ligand from human plasma, biotinylated
binding of biotinylated ligand to immobilized receptor [2]: bind both to the full length and soluble receptor preparations in a concentration dependent manner
